Experimental data from publication PMC2915928 (Bioorganic & medicinal chemistry, 2009).
Where two headings read alike, the source gives them in different places.

Legend:
[1] = biological target: T1, nociceptin (NOP) receptor (Homo sapiens, UniProt P41146); assay: biochemical; conditions: read-out: NOP Emax, stimulation of [35S]GTPγS binding
[2] = biological target: T1, nociceptin (NOP) receptor; assay: Inhibition of basal [35S]GTPγS binding; assay type: biochemical; conditions: read-out: NOP Emax, inhibition of basal [35S]GTPγS binding
μ-opioid receptor [3] = biological target: T2, μ-opioid receptor (Mus musculus, UniProt P42866)
T2 sequence (P42866 whole entry): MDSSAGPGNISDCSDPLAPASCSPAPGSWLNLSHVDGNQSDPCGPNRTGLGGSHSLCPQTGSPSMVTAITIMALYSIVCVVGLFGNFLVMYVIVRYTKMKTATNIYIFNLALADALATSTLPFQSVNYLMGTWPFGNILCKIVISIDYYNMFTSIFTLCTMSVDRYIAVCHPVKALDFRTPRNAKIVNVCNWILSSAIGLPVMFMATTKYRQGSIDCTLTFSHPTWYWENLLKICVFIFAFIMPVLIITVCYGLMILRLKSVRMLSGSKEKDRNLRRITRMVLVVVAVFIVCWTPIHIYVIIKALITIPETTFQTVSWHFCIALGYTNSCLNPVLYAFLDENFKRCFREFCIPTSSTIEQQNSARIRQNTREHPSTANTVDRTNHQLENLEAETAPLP

μ-opioid receptor [4] = biological target: T2, μ-opioid receptor; assay: biochemical; conditions: read-out: μ Emax, stimulation of [35S]GTPγS binding
μ-opioid receptor [5] = biological target: T2, μ-opioid receptor; assay: biochemical; conditions: read-out: μ Emax, inhibition of basal [35S]GTPγS binding
[6] = human liver microsomes

T1 sequence (P41146 whole entry): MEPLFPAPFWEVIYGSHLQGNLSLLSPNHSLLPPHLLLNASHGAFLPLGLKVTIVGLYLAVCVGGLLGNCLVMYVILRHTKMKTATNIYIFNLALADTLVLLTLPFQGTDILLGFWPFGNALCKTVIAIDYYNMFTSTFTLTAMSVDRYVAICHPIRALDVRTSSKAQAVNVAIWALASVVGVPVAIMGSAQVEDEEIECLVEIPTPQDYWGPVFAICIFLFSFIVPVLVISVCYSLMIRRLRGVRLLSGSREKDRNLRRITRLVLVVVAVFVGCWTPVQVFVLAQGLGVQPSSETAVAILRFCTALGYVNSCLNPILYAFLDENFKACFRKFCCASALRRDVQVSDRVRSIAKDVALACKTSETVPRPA

O=C(N[C@@H]1CC[C@@]2(O)[C@H]3Cc4ccc(O)c5c4[C@@]2(CCN3CC2CC2)[C@H]1O5)c1ccc(Cl)c(Cl)c1.O=C(O)C(=O)O [Compound 9]
Emax [1]: 0%
Emax [2]: 87 ± 6.9%
μ Emax, stimulation of [35S]GTPγS binding (μ-opioid receptor [3]): 85 ± 7.4%
Emax (μ-opioid receptor [4]): 80 to 85%
Emax (μ-opioid receptor [5]): 0%

O=C(N[C@@H]1CC[C@@]2(O)[C@H]3Cc4ccc(O)c5c4[C@@]2(CCN3CC2CC2)[C@H]1O5)c1ccc(Br)cc1.O=C(O)C(=O)O [Compound 6, 17-Cyclopropylmethyl-3,14β-dihydroxy-4,5α-epoxy-6β-[(4′-bromo)benzamido] morphinan]
Change of N-oxide formation rate upon going from pH 7.4 to pH 10 [6]: doubled
